{"source": "patent US20250295804A1", "about": "“PEG BASED ANTI-CD47/ANIT-PD-L1 BISPECIFIC ANTIBODY-DRUG CONJUGATE” (Shenzhen Enduring Biotech, Ltd., priority 2022, published 2025)", "key": {"BxPC-3 tumor cells": {"system": "BxPC-3 tumor cells", "assay": "FACS selective binding assay, tumor cells", "type": "cell-based", "details": "BxPC-3, 30 min at 4° C.", "protocol": "(§1) Briefly, freshly prepared red blood cells (from healthy donors) and BxPC-3 tumor cells (Procell, Wuhan, China) were used as target cells. […] The cells were washed at least twice with PBS and analyzed with flow cytometry after incubation."}, "[1]": {"system": "red blood cells (from healthy donors)", "assay": "FACS selective binding assay, red blood cells", "type": "cell-based", "details": "30 min at 4° C.", "protocol": "as §1"}}}
{"substance": "Hu5F9-G4: anti-CD47 antibody, expressed and prepared in house [reference compound]", "values": [{"measurement": "binding to target cells", "setting": "BxPC-3 tumor cells", "result": "specifically bind"}, {"measurement": "binding to target cells", "setting": "[1]", "result": "binds with high affinity"}]}
